The results in this text go back to PubChem BioAssay AID463074 (Broad Institute, 2010).

As a reminder, the AC50 is the concentration giving half of the maximal activity seen.

The source made the active and inactive calls.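 How the source made its calls: active means AC50 no more than tenfold above the top dose tested, or full inhibition at every dose with a flat fit (cut at about 19 µM in these data); inconclusive means flat curve fit with inhibition between 30% and 70%, or poor fit; inactive means AC50 more than tenfold above the top dose tested.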 A value given as a limit tells only on which side of the number the result lay.

For this assay, the system named is HMLE_sh_eGFP viability, CellTiter-Glo luminescence, 72 h. Description: viability loss of HMLE_sh_eGFP cells – cell-based, luminescence, counter-screen for HMLE_sh_ECad selective toxicity project, dose response (AID 463074;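 further: counterscreen control line to flag general toxicity for the HMLE_sh_ECad screen; potency for loss of viability as luminescence drops below DMSO wells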). (The purpose of a counterscreen is to sort out artefacts and off-target activity.)
In the case of `COc1cc2nc(CN3CC=C(c4ccccc4)CC3)[nH]c(=O)c2cc1OC`, the AC50 was 3.39 µM.
As to `Cc1ccc(-c2csc3ncnc(-n4cnc5ccccc54)c23)cc1`, the concentration at half-maximal activity (AC50) was 4.28 µM.
In the case of `Cc1ccc(NC(=O)CN(C)C(=O)Cn2ncc(Cl)c(Cl)c2=O)cc1`, the half-maximal activity concentration (AC50) was 4.22 µM.
With `CC1CCCCC1NC(=O)/C(C#N)=C/c1ccccc1F` (stereo not drawn) the figure was 7.72 µM; with `Cc1ccc(OCC(O)Cn2c3ccccc3c3ccccc32)cc1` (stereo not drawn), 6.78 µM.
With `Cc1cc(Br)c(OCc2ccc(C(=O)N/N=C/c3ccc[nH]3)cc2)c(Br)c1` the figure was 1.32 µM.
On to `O=S(=O)(Nc1nc2ccccc2nc1Nc1ccc(N2CCOCC2)cc1)c1cc(Cl)ccc1Cl`, for which the AC50 was 4.23 µM.
With `CC(C)CCNc1nc(-c2ccco2)c2c(c1C#N)CCCC2` the figure was 11.3 µM; with `CCNC(=S)N/N=C/c1cn(Cc2ccc(F)cc2)c2ccccc12`, 10.9 µM.
Regarding `CCOC(=O)c1ccc(-n2[nH]c(-c3ccccc3)cc2=O)cc1`, the AC50 was 7.96 µM.
With `Cc1ccc(N/N=C/c2cccnc2)cc1`, the AC50 was 6.14 µM.
For the molecule `O=C(NCc1ccco1)c1cc(-c2ccc3c(c2)OCO3)on1`, the concentration at half-maximal activity (AC50) is 0.973 µM.
As for `CCOc1ccc2nc(NC3=NC(c4ccc(OC)cc4)CC(=O)N3)nc(C)c2c1` (stereo not drawn), the AC50 is 7.28 µM.
With `Cc1ccc2nc(-c3cccc(-c4cccc(Cl)c4)c3)c(NCc3ccccc3)n2c1` the figure was 3.17 µM; with `COc1ccc(OC)c(-c2nnc3n2N=C(c2ccc(OC(F)F)c(OCC4CC4)c2)CS3)c1`, 4.26 µM.
With `COc1ccc(C)cc1NS(=O)(=O)c1ccc(NC(=O)CN(c2cc([N+](=O)[O-])ccc2C)S(C)(=O)=O)cc1` the figure was 3.8 µM.
As for `O=S(=O)(Nc1ccc(O)c2ccccc12)c1ccc(OC(F)(F)F)cc1`, the half-maximal activity concentration (AC50) is 12.5 µM.
Turning to `CC(C)C[C@H](N)c1nnc(S(=O)(=O)Cc2ccc(F)cc2)o1`, the AC50 was 8.54 µM.
For the molecule `CN1CCN(c2ccc(NC(=O)COc3ccc(Cl)cc3Cl)cc2)CC1`, the AC50 was 5.38 µM.
As for `Oc1ccccc1C1=NN(c2ccccc2)C(c2ccccc2)C1` (stereo not drawn), the half-maximal activity concentration (AC50) is 1.63 µM.
Turning to `Cc1cc(C(C)(C)C)c(OC(=O)[C@@H]2OC(c3ccccc3)=C[C@H]2c2ccccc2)c(C(C)(C)C)c1`, the AC50 was 7.77 µM.
On to `O=C(CSc1nc2nc(-c3cccs3)cc(C(F)(F)F)c2c(=O)[nH]1)Nc1ccc(F)c(F)c1`, for which the half-maximal activity concentration (AC50) was 2.56 µM.
For the molecule `COc1ccc(-c2noc3c2-c2nc(-c4ccccc4C)sc2CC3)cc1`, the AC50 was 1.03 µM.
With `COc1ccc(NS(=O)(=O)c2cc(NC(=O)c3ccc(=O)[nH]c3)ccc2N2CCCC2)cc1` the figure was 1.1 µM; with `Cc1nn(-c2ccccc2)c2nc(N)c(C#N)c(-c3ccc(C(C)(C)C)cc3)c12`, 3.24 µM.
For `CN1CCN(C2Cc3ccc(F)cc3Sc3cc(F)c(Cl)cc32)CC1` (stereo not drawn), the AC50 is 5.49 µM.
With `O=C(Nc1ccc(Cl)cc1)N1CCCN(c2ccc(C(F)(F)F)cc2[N+](=O)[O-])CC1` the figure was 6.57 µM.
In the case of `CNC(=O)C1C(=S)NC(N)=C(C#N)C1c1ccccc1` (stereo not drawn), the AC50 is > 19.5 µM (inactive).
With `COc1ccc(/C=N/Nc2cc(N3CCCC3)nc(N3CCCC3)n2)cc1` the figure was 5.14 µM; with `NC(=O)c1sc(-c2ccsc2)cc1NS(=O)(=O)c1ccc(C(F)(F)F)cc1`, 16.1 µM.
With `O=[N+]([O-])c1ccc(/C=N/n2cnc3ccccc32)s1` the figure was 6.83 µM; with `COc1ccc(C(=O)Nc2cccc(/C=C/c3nc4ccccc4c(=O)[nH]3)c2)cc1`, 3.58 µM.
`CCOc1cccc(/C=N/NC(=O)c2cc(C3CC3)[nH]n2)c1O`: the half-maximal activity concentration (AC50) is 5.72 µM.
For the molecule `Cc1ccc(C(C#N)c2ccc3c(C(F)(F)F)cc(C(F)(F)F)nc3n2)cc1` (stereo not drawn), the AC50 is 2.56 µM.
Regarding `CN(C)CCOc1ccc(-c2c(-c3ccsc3)sc3ccccc23)cc1`, the concentration at half-maximal activity (AC50) is 3.04 µM.
As for `CCCc1c(-c2ccc(O)cc2)nn(-c2ccc(O)cc2)c1-c1ccc(O)cc1`, the half-maximal activity concentration (AC50) is 6.1 µM.
With `CCOC(=S)SCC(=O)Nc1nc(-c2ccc(Br)cc2)cs1` the figure was 3.54 µM; with `O=C(CS(=O)c1ccc(C(F)(F)F)cc1[N+](=O)[O-])Oc1ccccc1` (stereo not drawn), 5.22 µM.
On to `O=C(Cc1ccc(Cl)c(Cl)c1)Nc1ccc(SC(F)F)cc1`, for which the AC50 is 3.93 µM.
With `Cc1nn(Cc2ccccc2)c(C)c1C(=O)OCC(=O)c1cc(C)n(CC(F)(F)F)c1C` the figure was 14 µM.
With `Cc1nc(N2CCCCC2)c2c(C)c(C(=O)Nc3ccccc3C(F)(F)F)sc2n1` the figure was 1.85 µM; with `CC(=O)Oc1ccc(-c2csc(Nc3ccc(Cl)cn3)n2)cc1`, 4.6 µM.
`COc1ccc(-c2sc3ccccc3c2/C=C/c2ccc(N)cc2)cc1`: the half-maximal activity concentration (AC50) was 15.8 µM.
With `COc1cc(-c2nc(-c3ccc(NC(=O)c4ccc(Br)o4)cc3)no2)cc(OC)c1OC` the figure was 3.5 µM; with `CC1(C)CC[C@]2(C(=O)O)CC[C@]3(C)C(=CC[C@@H]4[C@@]5(C)CC[C@H](O[C@@H]6O[C@H](C(=O)O)[C@@H](O)[C@H](O[C@@H]7OC[C@H](O)[C@H](O)[C@H]7O)[C@H]6O)C(C)(C)[C@@H]5CC[C@]43C)[C@@H]2C1`, 5.14 µM; with `CC(=O)c1ccc(NC(=O)COC(=O)c2c3c(nc4ccccc24)/C(=C\c2cccs2)CCC3)cc1`, 4.54 µM.
Turning to `C=Cn1ccnc1P(=S)(c1ccc2c(c1)c1ccccc1n2CC)c1nccn1C=C`, the AC50 was 2.18 µM.
With `COc1cc(-c2ccc3c(=O)c4ccccc4n(C)c3c2)cc(OC)c1OC` the figure was 8.21 µM; with `Cc1ccc(-c2csc(-c3c[nH]c4ccccc34)n2)c(C)c1`, 4.19 µM.
For the molecule `CCc1ccc2[nH]c(=O)c(C3C(C#N)=C(N)Oc4c3ccc3cccnc43)cc2c1` (stereo not drawn), the half-maximal activity concentration (AC50) is 8.92 µM.
For the molecule `Cc1cc(C)nc(NC(=NCCc2c[nH]c3ccccc23)NC(=O)Nc2ccc(Cl)cc2)n1`, the AC50 was > 19.5 µM (inactive).
Turning to `CCC1C=CC=CC[C@H](C)[C@@H](O)[C@](C)(O)C(=O)[C@@H](C)[C@H](O)[C@@H](C)C(=O)[C@H](C)[C@@H](O)[C@H](C)C=CC(=O)OC2[C@@H](C)C(CC1)OC1(CC[C@@H](C)C(C[C@H](C)O)O1)[C@@H]2C` (stereo partly drawn), the AC50 was 3.2 µM.
With `Cc1cc(NCCCn2ccnc2)n2nc(C)c(-c3ccc(Cl)cc3)c2n1` the figure was 6.46 µM; with `O=C(N/N=C/c1cc(Cl)ccc1O)c1ccc(Br)cc1`, 4.41 µM; with `O=Cc1cc2ccccc2nc1SCc1ccc(Cl)cc1`, 5.69 µM.
With `COc1ccc(Cn2nnnc2C(C(C)C)N(Cc2ccco2)Cc2cccs2)cc1` (stereo not drawn) the figure was > 19.5 µM (inactive); with `CC(C)(C)[C@@H]1CCC(=O)N(CC[C@H](Sc2ccc(Br)cc2)c2ccccc2)CC1`, 3.38 µM; with `Cc1ccc(N2NC(=O)/C(=C\c3cc4c(cc3[N+](=O)[O-])OCO4)C2=O)cc1C`, 4.44 µM.
For `CC1(C)CC[C@]2(CO)[C@@H](O)C[C@]3(C)C(=CCC4[C@@]5(C)CC[C@H](O)C(C)(C)C5CC[C@]43C)[C@@H]2C1` (stereo partly drawn), the AC50 was 4.35 µM.
For the molecule `Cc1ccc(-c2nnc(Sc3nc4ccccc4o3)c3ccccc23)cc1`, the AC50 was 6.74 µM.
For the molecule `O=C(NNC1=C(C(=O)C(F)(F)F)CCC1)c1ccc(Cl)cc1`, the concentration at half-maximal activity (AC50) was 4.25 µM.
`S=C(Nc1cc(Cl)cc(Cl)c1)NC1CCN(Cc2ccccc2)CC1`: the concentration at half-maximal activity (AC50) is 4.23 µM.
In the case of `CC(C)(C)c1ccc(OCC(=O)N/N=C/c2cc(Br)ccc2OC(=O)c2ccco2)cc1`, the AC50 was 3.61 µM.
On to `O=C(N/N=C\c1cc(Br)ccc1O)c1ccc(S(=O)(=O)N2CCCCC2)cc1`, for which the half-maximal activity concentration (AC50) is 2.75 µM.
With `CC[C@@]1(O)C(=O)OCc2c1cc1n(c2=O)Cc2cc3c(NC(=O)CN)cccc3nc2-1` the figure was 2.56 µM; with `COc1ccc(-c2cc([C@H]3[C@@H]4C=CCC[C@@]4(C)C(=O)N3Cc3ccccc3)ccc2F)cc1OC`, 5.67 µM.
On to `COc1ccc(CCCC(=O)N/N=C/c2cccc(OC)c2O)cc1C`, for which the AC50 is 3.13 µM.
With `COc1cc(-c2noc(C)c2C#Cc2ccccn2)cc(OC)c1OC` the figure was 1.16 µM; with `COc1ccc(Sc2ccc(-c3nc4cnccn4c3NC3CCCCC3)cc2OC)cc1`, 3.57 µM; with `Cc1cccc(CN2C(=O)[C@@H]3Cc4c([nH]c5ccccc45)C(C)(C)N3C2=O)c1`, 12.3 µM.
Turning to `C[C@@H]1O[C@@H](O[C@H]2C[C@@H](O)[C@]3(CO)[C@H]4[C@H](O)C[C@]5(C)[C@@H](C6COC(=O)C6)CC[C@]5(O)[C@@H]4CC[C@]3(O)C2)[C@H](O)[C@H](O)[C@H]1O` (stereo partly drawn), the concentration at half-maximal activity (AC50) was 0.74 µM.
As for `CN1CCN(C2=Cc3ccc(Cl)cc3Sc3ccc(F)cc32)CC1`, the concentration at half-maximal activity (AC50) is 6.74 µM.
Turning to `Cc1ccc(F)c([C@H]2C3C=CCC(c4ccccc4)C3C(=O)N2Cc2ccccc2)c1` (stereo partly drawn), the AC50 is 6.52 µM.
As to `O=S(=O)(NCc1ccncc1)c1ccc(S(=O)(=O)NCC2CCCO2)cc1` (stereo not drawn), the AC50 is > 19.5 µM (inactive).
Consider `Cc1ccc([N+](=O)[O-])cc1N(CC(=O)Nc1ccc(S(=O)(=O)Nc2cccc(C(F)(F)F)c2)cc1)S(C)(=O)=O`, for which the AC50 was 4.67 µM.
Regarding `COc1cc2c(cc1NC(=O)CN(C)Cc1cccc(OC)c1OC)oc1ccccc12`, the half-maximal activity concentration (AC50) was 3.56 µM.
On to `COc1cccc(NP(=O)(Oc2ccc(Cl)cc2)Oc2ccc(Cl)cc2)c1`, for which the half-maximal activity concentration (AC50) was 5.83 µM.
With `COc1cc2ccccc2cc1C(=O)Nc1ccccc1Cl` the figure was 7.94 µM; with `COc1cc(/C=N/NC(=O)c2cc(C34CC5CC(CC(C5)C3)C4)[nH]n2)ccc1O`, 0.24 µM.
`C=C(C(=O)c1ccccc1)C(C)C(=C)C(=O)c1ccccc1`: the AC50 was 1.85 µM.
Consider `Cc1ccc(C(=O)NC(=C(Cl)Cl)S(=O)(=O)c2ccccc2)cc1`, for which the half-maximal activity concentration (AC50) was 3.22 µM.
As for `CCc1cc(-c2n[nH]c(C)c2Oc2ccc(C(C)C)cc2)c(O)cc1O`, the half-maximal activity concentration (AC50) is 3.65 µM.
Take `O=C(CNC(=O)C1COc2ccccc2O1)N/N=C/c1ccc(O)cc1O` (stereo not drawn): the concentration at half-maximal activity (AC50) is 5.21 µM.
Consider `Cc1ccc(C(=O)NC2c3ccccc3-c3ccccc32)cc1`, for which the AC50 is 0.816 µM.
With `c1ccc(CNc2c(-c3cccc(SC4CCCCC4)c3)nc3ccccn23)cc1` the figure was 3.6 µM.
As to `O=C(NC12CC3CC(CC(C3)C1)C2)c1ccc(-c2ccccc2Cl)o1`, the AC50 was 3.81 µM.
Take `COc1cccc(-c2cc3nc4c(c(N5CCC6(CC5)OCCO6)n3n2)CCCC4)c1`: the concentration at half-maximal activity (AC50) was 9.81 µM.
For the molecule `CC1CCCC(NC(=S)Nc2ccc(SC(F)F)cc2)C1C` (stereo not drawn), the AC50 was 6.34 µM.
